Patent US8758767B2, “Antigens targeted by prevalent pathogennic T cells in type 1 diabetes and uses thereof” (Albert Einstein College of Medicine of Yeshiva University, priority 2003, dated 2014)

Legend:
8.3 CTL = assay: Epitope reconstitution 51Cr-release cytotoxicity assay, peptide-pulsed RMA-S/K^d target cells; assay type: cell-based, mouse; details: peptide-pulsed RMA-S/K^d targets
Experimental: 8.3 CTL were generated by culturing splenocytes from 8.3-NOD mice with mitomycin C-treated NOD splenocytes pulsed with NRP-A7 peptide as described (DiLorenzo et al, 2002). CTL were used in 16 h ^51Cr-release cytotoxicity assays to test for recognition of peptide-pulsed RMA-S/K^d target cells (provided by M. Bevan, University of Washington, Seattle, Wash., USA) at an effector to target ratio of 40:1 as described (DiLorenzo et al., 2002). Synthetic peptides were used at concentrations as indicated in the figures, and 7×10^8, 6×10^8, and 2×10^9 NIT-1-cell-equivalents of peptide were used for assays of first-, second-, and third-dimension HPLC fractions, respectively.

8.3-CD8+ T-cells = assay: Proliferation and cytokine secretion of naive splenic 8.3-CD8+ T-cells with peptide-pulsed NOD splenocytes; assay type: cell-based, mouse; details: for agonistic activity on 8.3-CD8+ T-cells: FIG. 5, peptide 0.01-1 μM
Experimental: Naïve or NRP-A7-differentiated (see below) splenic CD8+ T-cells from 8.3-NOD mice (2×10^4/well) were incubated, in duplicate, with peptide-pulsed (0.01, 0.1 and 1 μM), γ-irradiated (3,000 rad) NOD splenocytes (10^5/well) for 3 days at 37° C. in 5% CO2. Cultures were pulsed with 1 μCi of (^3H)-thymidine during the last 18 hours of culture and harvested.
(§1) Naïve splenic CD8+ T-cells from 8.3-NOD mice (2×10^4/well) were incubated with peptide-pulsed (0.001, 0.01, 0.1, 1 and/or 10 μM) γ-irradiated NOD splenocytes (10^5/well) in 96-well plates for 48 hours at 37° C. Short-term islet-derived T-cell lines from peptide-treated or unmanipulated NOD mice (adjusted at 2×10^4 CD8+ T-cells/well) were tested the same way, but using 10 μM of peptide. The supernatants (100 μl/well) were assayed in duplicate for IL-2, IL-4, and/or IFN-γ content by ELISA using commercially available kits (Genzyme Diagnostics, Cambridge, Mass.).

female NOD mice = assay: Repeated peptide treatment of female NOD mice, diabetes development and islet-associated CD8+ T-cells; assay type: in vivo, mouse; details: for avidity of NRP-V7 tetramer binding by islet-associated CD8+ cells of treated mice: NRP-I4 100 μg/injection, NRP-A7 50 μg/injection, vs TUM-treated mice; for protection from diabetes by chronic treatment (discussion summary): intermediate doses NRP-A7, high doses NRP-I4, low or high doses NRP-V7, high doses IGRP206-214; for absolute number of NRP-V7-reactive T-cells in the islets: NRP-A7 50 μg/injection vs. TUM-treated mice; for T-cell responses against IGRP epitopes of islet-derived CD8+ T-cells of treated mice: for IGRP206-214 treatment: other IGRP epitopes
Experimental: Cohorts of 3-to-4 week-old female NOD mice were injected with 1-100 μg of peptide in PBS intraperitoneally. This was repeated every 2 weeks until the 7-8th week, and every 3 weeks thereafter. Mice were monitored for development of hyperglycemia until at least the 28th week of age. The 8.3-CD8+ T-cell tolerogenic activity of APLs was determined by treating 8-15 wk-old 8.3-NOD mice with one i.p. injection of 100 μg of peptide. […] Mice were sacrificed a week after treatment, and their spleens analyzed for presence of 8.3-CD8+ T-cells by flow cytometry.
We next investigated whether the anti-diabetogenic activity of the above APLs was a function of “avidity”, as defined not only by the affinity of individual peptide/MHC complexes for specific TCRs, but also by the absolute number of peptide/MHC complexes that are available for recognition (i.e. dose of peptide). This was done by treating cohorts of female NOD mice with repeated injections of TUM (negative control), NRP-I4, NRP-A7 and NRP-V7 (in PBS) over a wide dose range, and by following the mice for development of diabetes (FIG. 7A, top). Starting at 3-4 weeks of age, mice received one injection of peptide i.p. every 2 (first three doses) or 3 weeks after initiation of treatment. Mice were sacrificed at diabetes onset or at the end of the follow-up period (28-32 weeks), to investigate the effects of treatment on the size and tetramer-binding avidity of the islet-associated IGRP206-214-reactive CD8+ T-cell subpopulation (FIG. 7A, bottom).

AI15.F5 TCR = assay: TCR transfectant peptide recognition, IL-2 release (58 α−β− cells, RMA-S/K^d presenters); assay type: cell-based, mouse; details: FIG. 2
Text: (§2) T cell receptors from the previously isolated NOD-derived β cell-autoreactive class I MHC-restricted T cell clones AI4, AI12.B1.1, AI12.B1.2, AI12.B1.3, AI15.A10, AI15.F5 (DiLorenzo et al., 1998), and 8.3 (Verdaguer et al., 1997) were expressed in the TCR^− T cell hybridoma 58α^−β^− (engineered to express the TCR ζ chain and CD8αβ and provided by H.-C. Chang, Dana Farber, Boston, Mass., USA) as described (Serreze et al., 2001). TCR expression was verified by flow cytometric analysis of growing clones using an antibody to CD3ε (145-2C11). RMA-S/K^d cells incubated overnight at 28° C. were used to present exogenously added synthetic peptides at concentrations as indicated in the figures. Peptide recognition by the TCR transfectants was measured by IL-2 production as previously described (Serreze et al., 2001).

AI12.B1.3 TCR = assay: as above; assay type: cell-based, mouse; details: FIG. 2
Text: as §2

NOD female mice = assay: Protection of NOD mice from type 1 diabetes (Example 2); assay type: in vivo, mouse; details: for mice that developed diabetes: 100 micrograms peptide intraperitoneally from 3.5 weeks of age, read at ~25 weeks-old
Experimental: Ten NOD female mice were treated with 100 micrograms of IGRP206-214 peptide (in phosphate-buffered saline) intraperitoneally, starting at 3.5 weeks of age. Forty mice were used as controls. Each control mouse was treated with the TUM peptide ([…] NO:15). The mice received one injection of peptide every two weeks for the first three injections, and then one injection every three weeks thereafter. At 25 weeks-old, two (20%) of the IGRP206-214 mice developed diabetes, vs. 26 control mice ( 65%). […] There were no significant differences in interferon-γ production vs. cells stimulated with the negative control peptide TUM. In one of these two mice, the islets contained T-cells that responded to two IGRP peptides other than IGRP206-214.

H-2K^d = molecular target: T1, H-2K^d (Mus musculus, UniProt P01902); assay: H-2K^d stabilization assay on RMA-S/K^d cells (Example 1); assay type: binding; details: FIG. 3, mean fluorescence intensity of H-2K^d
T1 construct: expressed in transfected cells; host or cells: RMA-S/K^d cells
T1 sequence (P01902 22-368): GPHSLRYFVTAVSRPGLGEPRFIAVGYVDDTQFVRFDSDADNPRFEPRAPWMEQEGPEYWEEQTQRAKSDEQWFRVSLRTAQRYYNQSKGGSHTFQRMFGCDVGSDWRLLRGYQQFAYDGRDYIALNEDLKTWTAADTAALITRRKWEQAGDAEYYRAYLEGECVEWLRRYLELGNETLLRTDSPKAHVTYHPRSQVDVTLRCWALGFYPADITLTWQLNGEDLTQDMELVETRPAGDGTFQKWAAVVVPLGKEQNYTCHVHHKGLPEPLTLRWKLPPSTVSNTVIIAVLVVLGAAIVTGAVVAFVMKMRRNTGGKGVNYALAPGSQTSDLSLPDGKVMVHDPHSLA
T1 sequence (P01887 21-119 partner): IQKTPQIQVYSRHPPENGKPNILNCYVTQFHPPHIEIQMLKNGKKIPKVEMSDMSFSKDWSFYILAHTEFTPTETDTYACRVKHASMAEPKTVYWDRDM
Experimental: RMA-S/K^d cells, cultured overnight at 28° C., were pulsed with peptides in complete DMEM for 1 h at 28° C., incubated at 37° C. for 3 h, washed, stained with anti-H-2K^d monoclonal antibody SF1-1.1, counter-stained with FITC-conjugated polyclonal goat anti-mouse antibody, and analyzed by flow cytometry. Data were calculated by subtracting mean fluorescence intensity of H-2K^d on non-peptide-pulsed cells from that on peptide-pulsed cells.

[1] = system: CD8+ cells derived from pancreatic islets of wild-type NOD mice; assay: Tetramer staining and avidity of NOD islet-derived CD8+ T-cells (Example 3); assay type: cell-based, mouse; details: FIG. 9B, at least some animals
Experimental: Tetramers were prepared and used as described in (Amrani et al., 2000). Hand-picked pancreatic islets from individual mice were cultured in complete media supplemented with 0.5 U/ml of Takeda rhIL-2 for 7-9 days. T-cells (10^6 per 20 μl) were then stained for 45 minutes on ice in 20 μl of wash media (0.2% sodium bicarbonate, 0.1% sodium azide and 2% FBS in RPMI-1640) containing anti-CD8-FITC (clone YTS169.4; 0.5 μg) and tetramer (85.5 nM). After washing, the cells were resuspended in wash media and analyzed with a flow cytometer (Becton Dickinson). For the analysis of tetramer staining at equilibrium, T-cells were stained for 2 hours at room temperature with 20 μl of wash media (0.2% sodium bicarbonate, 0.1% sodium azide and 2% FBS in RPMI-1640) containing anti-CD8α-FITC (clone YTS169.4; 0.5 μg) and different concentrations of tetramers (8.55, 17.1, 42.75 and 85.5 nM). After washing, cells were resuspended in 100 μl of wash media, fixed in 0.4% paraformaldehide and analyzed with a flow cytometer. The apparent Kd values were determined by plotting the negative reciprocal of the slope of the line fit to Scatchard plots of fluorescence units (median of CD8+ population tetramer staining)/nM versus fluorescence units.

[2] = system: CD8+ cells propagated from islets of NOD mice; assay: IFN-γ secretion by islet-derived CD8+ T-cells in response to IGRP peptides; assay type: cell-based, mouse; details: peptide 10 μM, pre-diabetic or acutely diabetic NOD mice
Text: Islet-derived CD8+ T-cells from peptide-treated or unmanipulated NOD mice were generated by culturing pancreatic islets in complete media (CM: RPMI 1640 media containing 10% fetal bovine serum), containing 0.5 U/ml Takeda rhIL-2 (10-50 islets/well in 24-well plates). The in vivo-activated, IL-2R+ lymphocytes migrating from islets into the culture media were used in functional assays within 6-9 days of islet isolation (Amrani et al., 2000; Anderson et al., 1999).
as §1

[3] = IFN-γ secretion, Table II, FIG. 10A

## KYCLITIFL [G6Pase, reference compound]
8.3 CTL
  recognition by 8.3 CTL: not recognized by 8.3 CTL

## KYNIANWFL [NRP-I4]
8.3-CD8+ T-cells; FIG. 5
  triggering IFN-γ secretion by naive 8.3-CD8+ T-cells: quite efficient
8.3-CD8+ T-cells
  agonistic activity on 8.3-CD8+ T-cells: partial agonist
8.3-CD8+ T-cells; FIG. 5, proliferation, IL-2
  inducing other responses of naive 8.3-CD8+ T-cells: significantly less efficient than NRP-A7
Female NOD mice; 100 μg/injection
  anti-diabetogenic activity: highly anti-diabetogenic
Female NOD mice; <20 μg/injection
  anti-diabetogenic activity: not protective at all
Female NOD mice
  avidity of NRP-V7 tetramer binding by islet-associated CD8+ cells of treated mice: significantly lower avidity
  protection from diabetes by chronic treatment (discussion summary): near complete protection from diabetes

## KYNKANAFL [NRP-A7]
AI15.F5 TCR
  recognition by AI15.F5 (IL-2 release): did not recognize
AI12.B1.3 TCR
  recognition by AI12.B1.3 (IL-2 release): recognized
8.3-CD8+ T-cells
  agonistic activity on 8.3-CD8+ T-cells: agonist
Female NOD mice; 50 μg/injection
  anti-diabetogenic activity: protected mice from diabetes
Female NOD mice; 100 μg/injection
  anti-diabetogenic activity: ineffective
  percentages and absolute numbers of NRP-V7-reactive CD8+ cells in the islets: significantly reduced numbers
Female NOD mice
  absolute number of NRP-V7-reactive T-cells in the islets: 0.6×10^5±0.3
  avidity of NRP-V7 tetramer binding by islet-associated CD8+ cells of treated mice: accumulation of low avidity IGRP206-214-reactive CD8+ T-cells within islets
  protection from diabetes by chronic treatment (discussion summary): near complete protection from diabetes

## KYQAVTTTL [TUM, reference compound]
NOD female mice
  mice that developed diabetes: ~65%
Female NOD mice; [3]
  T-cell responses against IGRP epitopes of islet-derived CD8+ T-cells of treated mice: did not significantly increase
Female NOD mice
  absolute number of NRP-V7-reactive T-cells in the islets: 1×10^5±0.3

## LYLVCGERG [INS B15-23]
H-2K^d
  binding to H-2K^d: barely detectable even at the highest peptide concentration tested

## LYLVCGERI [INS-I9]
H-2K^d
  binding to H-2K^d: improved binding to H-2K^d

## SFCKSASIP [peptide 72, text numbering of the IGRP library]
[1]
  presence of peptide-reactive CD8+ T-cells in islets by tetramers: confirmed the presence
[2]
  mice with islet CD8+ T-cells responding to the peptide (IFN-γ secretion): a significant number of mice also mounted responses

## VYLKTNVFL [IGRP206-214]
NOD female mice
  mice that developed diabetes: 20%
NOD female mice; NRP-V7/K^d tetramer staining
  IGRP206-214-reactive T-cells in islets of treated mice that developed diabetes: did not have IGRP206-214-reactive T-cells in islets
AI15.F5 TCR
  recognition by AI15.F5 (IL-2 release): responded
AI12.B1.3 TCR
  recognition by AI12.B1.3 (IL-2 release): recognized
Female NOD mice; 75-100 μg/injection
  age at onset of diabetes: delayed
  incidence of diabetes: did not significantly reduce
Female NOD mice; 75-100 μg/injection, flow cytometry and functional assays
  intra-islet IGRP206-214-reactive CD8+ T-cell subpopulation: near complete deletion
Female NOD mice; [3]
  anti-IGRP206-214 response of islet-derived CD8+ T-cells of treated mice: reduced both the frequency and magnitude
  T-cell responses against IGRP epitopes of islet-derived CD8+ T-cells of treated mice: increased the frequency and magnitude
Female NOD mice
  protection from diabetes by chronic treatment (discussion summary): only afforded marginal protection from disease
8.3 CTL
  recognition by 8.3 CTL: is the natural β cell peptide recognized by 8.3
[2]
  mice with islet CD8+ T-cells responding to the peptide (IFN-γ secretion): most mice
H-2K^d
  binding to H-2K^d: good MEC binding

## YLKTNVFLF [IGRP207-215]
8.3-CD8+ T-cells; data not shown
  cross-reactivity with IGRP206-214, ability to elicit 8.3-CD8+ T-cell responses: cross-reactive with IGRP206-214
[2]
  mice with islet CD8+ T-cells responding to the peptide (IFN-γ secretion): most mice
